Among the data in US7425562B2, “Inhibitors of cruzipain and other cysteine proteases” (Amura Therapeutics Ltd., priority 2001, dated 2008) are Ki values, retold here.

Common to all, as to type: biochemical
For one experiment, the target named is T1, Human Cathepsin K (Homo sapiens, UniProt P43235).
T1 construct: Dr. Boris Turk (Josef Stefan Institute, Ljubljana, Slovenia)
T1 sequence (P43235 115-329): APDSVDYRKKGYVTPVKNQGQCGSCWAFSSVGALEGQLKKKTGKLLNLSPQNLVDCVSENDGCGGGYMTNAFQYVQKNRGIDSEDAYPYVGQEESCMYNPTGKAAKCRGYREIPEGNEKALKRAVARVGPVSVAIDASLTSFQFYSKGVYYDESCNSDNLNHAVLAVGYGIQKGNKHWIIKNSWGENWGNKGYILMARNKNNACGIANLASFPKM
The experiment can be described thus: Cathepsin peptidase activity assay, human cathepsin K (Ki). The settings on record: pH 5.5, 25±1° C. As to the method: (§1) Assay protocols were based on literature precedent (Tablel; Barrett, A. J., Rawlings, N. D. and Woessner, J. F., 1998, Handbook of Proteolytic Enzymes, Academic Press, London and references therein) and modified as required to suit local assay protocols. Enzyme was added as required to initiate the reaction and the activity, as judged by the change in fluorescence upon conversion of substrate to product, was monitored over time. All assays were carried out at 25±1° C.
(§2) Bovine cathepsin S, human cathepsin L, human cathepsin H and human cathepsin B were obtained from CN Biosciences. Recombinant human cathepsin S, human cathepsin K and human cathepsin X were obtained from Dr. Boris Turk (Josef Stefan Institute, Ljubljana, Slovenia). Unless otherwise stated, all peptidase activity assays were carried out in 10 mM bis-tris-propane (BTP), pH 6.5 containing 1 mM EDTA, 5 mM 2-mercaptoethanol and 1 mM CaCl2. Human cathepsin H activity assays were carried out in 10 mM BTP pH 6.5, 142 mM […], 1 mM CaCl2, 1 mM EDTA, 1 mM DTT, 0.035 mM Zwittergent 3-16. Human cathepsin K assays were carried out in 100 mM sodium acetate; pH 5.5 containing 20 mM L-cysteine and 1 mM EDTA (Bossard, M. J., et. al., J. Biol. Chem., 21, 12517-12524, 1996). Human cathepsin X assays were carried out in 100 mM sodium acetate; pH 5.5 containing 20 mM L-cysteine; 0.05% (w/v) Brij 35 and 1 mM EDTA (Santamaria, I., et. al., J. Biol. Chem., 273, 16816-16823, 1998; Klemencic, J, et al., Eur. J. Biochem., 267, 5404-5412, 2000). […] The rate of conversion of substrate to product was derived from the slope of the increase in fluorescence monitored continuously over time.
(§3) The apparent inhibition constant (Ki) for each compound was determined on the basis that inhibition was reversible and occurred by a pure-competitive mechanism. The Ki values were calculated, from the dependence of enzyme activity as a function of inhibitor concentration, by direct regression analysis (Prism v 3.02) using Equation 2 (Cornish-Bowden, A., 1995.).
(§4) In situations where the apparent dissociation constant (Ki^app) approached the enzyme concentrations, the Ki^app values were calculated using a quadratic solution in the form described by Equation 3 (Morrison, J. F. Trends Biochem. Sci., 7, 102-105, 1982; Morrison, J. F. Biochim. Biophys. Acta, 185, 269-286, 1969; Stone, S. R. and Hofsteenge, J. Biochemistry, 25, 4622-4628, 1986).

A further experiment concerns the target T2, Human Cathepsin L (Homo sapiens, UniProt P07711).
T2 construct: purchased CN Biosciences
Briefly: Cathepsin peptidase activity assay, human cathepsin L (Ki). To be noted: Ac-Phe-Arg-AMC, pH 6.5, 25±1° C. The method, then:
as §1, §2, §3, §4

In a further experiment the target is T3, Cruzipain (Trypanosoma cruzi, UniProt P25779).
T3 construct: Wild-type cruzipain, derived from Trypanosoma cruzi Dm28 epimastigotes; tissue Dr. Julio Scharfstein (Instituto de Biofisica Carlos Chagas Filho); host or cells: Trypanosoma cruzi Dm28 epimastigotes
T3 sequence (P25779 123-467): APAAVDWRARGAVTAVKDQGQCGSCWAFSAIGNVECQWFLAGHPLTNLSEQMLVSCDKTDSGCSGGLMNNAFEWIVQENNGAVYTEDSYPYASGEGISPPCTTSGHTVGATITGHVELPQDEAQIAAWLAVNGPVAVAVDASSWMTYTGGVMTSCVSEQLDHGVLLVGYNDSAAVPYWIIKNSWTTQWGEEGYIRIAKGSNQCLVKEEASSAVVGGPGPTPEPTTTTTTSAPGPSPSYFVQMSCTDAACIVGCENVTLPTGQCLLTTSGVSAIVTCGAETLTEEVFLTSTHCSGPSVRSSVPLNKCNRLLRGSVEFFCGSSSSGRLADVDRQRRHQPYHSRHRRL
The experiment can be described thus: Trypanosoma cruzi cruzipain peptidase activity assay (Ki). The settings on record: wild-type cruzipain from Trypanosoma cruzi Dm28 epimastigotes, pH 6.75, 25±1° C. The method, then:
as §1
Wild-type cruzipain, derived from Trypanosoma cruzi Dm28 epimastigotes, was obtained from Dr. Julio Scharfstein (Instituto de Biofisica Carlos Chagas Filho, Universidade Federal do R^10 de Janeiro, R^10 de Janeiro, Brazil). Activity assays were carried out in 100 mM sodium phosphate, pH 6.75 containing 1 mM EDTA and 10 mM Loysteine using 2.5 nM enzyme. Ac-Phe-Arg-AMC (KM^app≈12 μM) and D-Val-Leu-Lys-AMC (KM^app≈4 μM) were used as the substrates. Routinely, Ac-FR-AMC was used at a concentration equivalent to KM^app and D-Val-Leu-Lys-AMC was used at a concentration of 25 μM. The rate of conversion of substrate to product was derived from the slope of the increase in fluorescence monitored continuously over time.
as §3, §4

A further experiment has as its target T4, Bovine Cathepsin S (Bos taurus, UniProt P25326).
T4 construct: purchased CN Biosciences
The experiment can be described thus: Cathepsin peptidase activity assay, bovine cathepsin S (Ki). To be noted: boc-Val-Leu-Lys-AMC, pH 6.5, 25±1° C. As to the method:
as §1, §2, §3, §4

Where only a bound is given, the exact number is not on record here.

T4 sequence (P25326 115-331): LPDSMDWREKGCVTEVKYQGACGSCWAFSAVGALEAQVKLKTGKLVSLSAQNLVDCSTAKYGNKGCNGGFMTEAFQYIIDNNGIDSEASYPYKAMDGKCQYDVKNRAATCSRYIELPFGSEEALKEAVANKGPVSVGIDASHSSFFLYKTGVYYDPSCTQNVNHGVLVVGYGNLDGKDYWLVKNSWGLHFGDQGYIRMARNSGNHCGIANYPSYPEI
T2 sequence (P07711 114-333): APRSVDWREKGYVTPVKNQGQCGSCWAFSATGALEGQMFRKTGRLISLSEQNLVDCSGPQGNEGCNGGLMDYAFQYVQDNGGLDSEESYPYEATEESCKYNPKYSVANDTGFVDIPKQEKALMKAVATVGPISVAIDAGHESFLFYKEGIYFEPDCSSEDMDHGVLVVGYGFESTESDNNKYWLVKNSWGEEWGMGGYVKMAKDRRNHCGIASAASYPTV

Consider `CC(C)(C)c1ccc(C(=O)N[C@@H](Cc2ccc(O)cc2)C(=O)N2CC[C@H]3OCC(=O)[C@H]32)cc1` [Example 3, (3aS, 6aR) 4-tert-Butyl-N-[1S-(4-hydroxybenzyl)-2-oxo-2-(3-oxo-hexahydrofuro[3,2-b]pyrrol-4-yl)ethyl]benzamide], for which the Ki on Human Cathepsin K is over 5 µM; at Human Cathepsin L, over 35 µM; at Cruzipain, 0.2 µM; on Bovine Cathepsin S, over 100 µM.

For the compound `CC(C)C[C@H](NC(=O)c1ccc(Oc2ccccc2)cc1)C(=O)N1CC[C@H]2OCC(=O)[C@H]21` [Example 10, (3aS, 6aR) N-[3-methyl-1S-(3-oxo-hexahydrofuro[3,2-b]pyrrole-4-carbonyl)butyl]-4-phenoxybenzamide], the Ki at Human Cathepsin K was 0.1 µM; on Human Cathepsin L, over 25 µM; on Cruzipain, over 5 µM; on Bovine Cathepsin S, over 10 µM.

As for `O=C(N[C@@H](CSCc1ccccc1)C(=O)N1CC[C@H]2OCC(=O)[C@H]21)c1ccoc1` [Example 48, (3aS, 6aR) Furan-3-carboxylic Acid [1R-benzylsulfanylmethyl-2-oxo-2-(3-oxo-hexahydrofuro[3,2-b]pyrrol-4-yl)ethyl]amide], the Ki on Human Cathepsin K was over 10 µM; on Human Cathepsin L, over 100 µM; at Cruzipain, over 25 µM; on Bovine Cathepsin S, 0.3 µM.

In the case of `O=C(N[C@@H](Cc1ccc(O)cc1)C(=O)N1CC[C@H]2OCC(=O)[C@H]21)c1cccc2ccccc12` [Example 69, (3aS, 6aR) Naphthalene-1-carboxylic Acid [1S-(4-hydroxybenzyl)-2-oxo-2-(3-oxo-hexahydrofuro[3,2-b]pyrrol-4-yl)ethyl]amide], the Ki at Human Cathepsin K was over 100 µM; on Human Cathepsin L, 0.8 µM; at Cruzipain it was over 5 µM; at Bovine Cathepsin S, over 10 µM.
